Assay results as given in US5705185A, “Transdermal delivery of estradiol and process for manufacturing said device” (priority 1996, dated 1998).

Legend:
[1] = system: enzymatic degradation from estradiol to estrone in human skin; experiment: inhibition of the estradiol metabolism in human skin; details: for % Estradiol Metabolized (E1 *100/E1 + E2): 10% PPG; for Inhibition %: 10% PPG versus control; for Estradiol / Estrone: saturated estradiol in saline + 10% PPG, human skin without stratum corneum, n=3; for % estrone formed (percent of estradiol conversion to estrone): n = 4
[2] = saturation of estradiol in the coating layer; details: bad appearance, diminished adhesive properties
[3] = in vitro permeation through mouse skin in diffusion chamber; type: in vitro ADME, Swiss mice; details: n = 4
From the text: […]. The techniques of this permeation studies is described afterwards.
Furthermore, "in vitro" permeation experiments with abdominal mouse skin and human skin were made using the diffusion chamber that is schematically shown in longitudinal section in FIG. 1.
The diffusion chamber illustrated in FIG. 1 comprises a body having front and rear tubular sections 1 and 2 having respective annular end flanges 3 and 4 by which the sections 1 and 2 are joined together. A sample of skin 5, with attached estradiol delivery device D to be tested facing the rear tubular section 2, is clamped between the flanges 3 and 4 by means of a pinch clamp 6.
The tubular section 1 has an internal chamber 7 with an opening 8 furnished with a glass stopper 9. The tubular section 1 has also a jacket 10 through which warm water can be circulated to maintain the contents of the chamber 7 at the desired temperature. The chamber 7 contains a magnetic bar stirrer 11 which is rotatable by means of a magnetic field applied externally means (not shown) to enable the contents of the chamber 7 to be stirred.
The tubular section 2 has a chamber 12 with an opening 13 furnished with a glass stopper 14.
In the assay, the skin of Swiss mice, shaved 72 hours before the experiments, was employed. Also used was human skin obtained from human skin samples (remnants of plastic surgery) which have been eliminated the adipose tissue by scissors, and then was cut to 500 microns by a dermatome.
[…]. Each experiment was started by loading chamber 7 with 5.5 ml of a receptor solution of sodium lauryl sulfate (0.5%), starting the stirrer 11 and taking samples at pre determined periods of time and the subsequent determination of permeated estradiol (by HPLC).

[4] = system: 17-β-hydroxysteroid dehydrogenase; experiment: purified 17-β-hydroxysteroid dehydrogenase assay, absorbance at 340nm (NADH); type: biochemical; details: propylene glycol 10% in volume
Method: Another experimentation in this field was carried out using purified 17-β-hydroxysteroid dehydrogenase, 17-β-estradiol as a substrate and NAD^+ as a cofactor in the control tubes, in sample tubes 10% in volume of propyleneglycol was added. The continuous monitoring of the increase in the absorbance at 340nm generated by the appearance of NADH was the method used. […] Therefore the inhibition of the conversion is no mediated by a denaturalization process of the enzyme, therefore we postulated that the process of inhibition was governed by competition for NAD^+.

Structure (SMILES): C[C@]12CC[C@@H]3c4ccc(O)cc4CC[C@H]3[C@@H]1CC[C@@H]2O [Estradiol, estradiol]
- transformation of estradiol in contact with the enzymes of the skin ([1]; permeation through skin): enzymatically oxidazed to estrone
- concentration above which estradiol precipitates in the polymeric matrix [2]: above 2.1 wt %
- Flux through mouse skin at 24h ([3]; estradiol concentration 1 wt % in coating layer): 1.8 ± 0.29 μg/cm^2 *h
- Flux through mouse skin at 24h ([3]; estradiol concentration 1.5 wt % in coating layer): 2.2 ± 0.25 μg/cm^2 *h
- Flux through mouse skin at 24h ([3]; estradiol concentration 1.75 wt % in coating layer): 2.8 ± 0.33 μg/cm^2 *h
- Flux through mouse skin at 24h ([3]; estradiol concentration 1.8 wt % in coating layer): 3.28 ± 0.41 μg/cm^2 *h
- Flux through mouse skin at 24h ([3]; estradiol concentration 2 wt % in coating layer): 3.31 ± 0.45 μg/cm^2 *h
- Flux through mouse skin at 24h ([3]; estradiol concentration 2.5 wt % in coating layer): 3.39 ± 0.37 μg/cm^2 *h

Structure (SMILES): CC(O)CO (centres unmarked) [Propylene glycol, propylene glycol]
- % Estradiol Metabolized (E1 *100/E1 + E2) ([1]; Exp. 1): 7.4%
- Inhibition % ([1]; Exp. 1): 66.0%
- Estradiol ([1]; Exp. 1): 3.51 nmol/mL
- Estrone ([1]; Exp. 1): 0.27 nmol/mL
- % Estradiol Metabolized (E1 *100/E1 + E2) ([1]; Exp. 2): 6.55%
- Inhibition % ([1]; Exp. 2): 57.2%
- Estradiol ([1]; Exp. 2): 2.71 nmol/mL
- Estrone ([1]; Exp. 2): 0.19 nmol/mL
- propyleneglycol concentration at which enzymatic conversion of estradiol to estrone is minimized ([1]; FIG. 4C): 10 % wt
- % estrone formed (percent of estradiol conversion to estrone) ([1]; PG 0.25%): 37.9%
- % estrone formed (percent of estradiol conversion to estrone) ([1]; PG 0.5%): 33.6%
- % estrone formed (percent of estradiol conversion to estrone) ([1]; PG 1.5%): 26.8%
- % estrone formed (percent of estradiol conversion to estrone) ([1]; PG 3%): 20.6%
- % estrone formed (percent of estradiol conversion to estrone) ([1]; PG 5%): 16.1%
- % estrone formed (percent of estradiol conversion to estrone) ([1]; PG 10%): 9.2%
- inhibition of enzymatic degradation of estradiol to estrone ([1]; tests conducted by the applicant): inhibits the enzymatic mechanism that causes degradation of estradiol to estrone
- increase in the absorbance at 340nm (NADH) ([4]; 0 min): 0
- effect on purified enzyme activity versus control ([4]; 17-β-estradiol substrate, NAD+ cofactor): No differences
- increase in the absorbance at 340nm (NADH) ([4]; 1 min): 15
- increase in the absorbance at 340nm (NADH) ([4]; 2 min): 30
- increase in the absorbance at 340nm (NADH) ([4]; 3 min): 47
- increase in the absorbance at 340nm (NADH) ([4]; 4 min): 60
- increase in the absorbance at 340nm (NADH) ([4]; 5 min): 72
- increase in the absorbance at 340nm (NADH) ([4]; 6 min): 95
- increase in the absorbance at 340nm (NADH) ([4]; 7 min): 105
- increase in the absorbance at 340nm (NADH) ([4]; 8 min): 113
- increase in the absorbance at 340nm (NADH) ([4]; 9 min): 120
- increase in the absorbance at 340nm (NADH) ([4]; 10 min): 125
- increase in the absorbance at 340nm (NADH) ([4]; 11 min): 128
- increase in the absorbance at 340nm (NADH) ([4]; 12 min): 130
